# Measurements reported in the kinase profiling compilation of Christmann-Franck et al. (2016).
# Tests used:
# Assay in all cases: radiometric filter-binding kinase assay, Kinase HotSpot
# Conditions in all cases: compound 0.5 µM; ATP 10 µM
# [1] = target: MAP4K5 (human) (UniProt Q9Y4K4)
# [2] = target: PRKCZ (human) (UniProt Q05513)
# [3] = target: STK38 (human) (UniProt Q15208)
# [4] = target: MET (human) (UniProt P08581)
# [5] = target: IKBKE (human) (UniProt Q14164)
# [6] = target: MAPKAPK5 (human) (UniProt Q8IW41)
# [7] = target: MAP3K2 (human) (UniProt Q9Y2U5)
# [8] = target: CDK6 CCND1 (human) (UniProt Q00534+P24385)
# [9] = target: PHKG1 (human) (UniProt Q16816)
# [10] = target: RET (human) (UniProt P07949)
# [11] = target: MAPK3 (human) (UniProt P27361)
# [12] = target: CLK2 (human) (UniProt P49760)
# [13] = target: EPHA6 (human) (UniProt Q9UF33)
# [14] = target: STK33 (human) (UniProt Q9BYT3)
# [15] = target: EGFR (human) (UniProt P00533)
# [16] = target: FER (human) (UniProt P16591)
# [17] = target: MYO3B (human) (UniProt Q8WXR4)
# [18] = target: SRPK1 (human) (UniProt Q96SB4)
# [19] = target: PDPK1 (human) (UniProt O15530)
# [20] = target: STK10 (human) (UniProt O94804)
# [21] = target: BRAF (human) (UniProt P15056)
# [22] = target: ULK1 (human) (UniProt O75385)
# [23] = target: SIK2 (human) (UniProt Q9H0K1)
# [24] = target: TBK1 (human) (UniProt Q9UHD2)
# [25] = target: PAK6 (human) (UniProt Q9NQU5)
# [26] = target: MST1R (human) (UniProt Q04912)
# [27] = target: TGFBR2 (human) (UniProt P37173)
# [28] = target: AKT2 (human) (UniProt P31751)
# [29] = target: AXL (human) (UniProt P30530)
# [30] = target: TLK2 (human) (UniProt Q86UE8)
# [31] = target: ULK3 (human) (UniProt Q6PHR2)
# [32] = target: MARK3 (human) (UniProt P27448)
# [33] = target: STK4 (human) (UniProt Q13043)
# [34] = target: LCK (human) (UniProt P06239)
# [35] = target: PRKACG (human) (UniProt P22612)
# [36] = target: NEK11 (human) (UniProt Q8NG66)
# [37] = target: YES1 (human) (UniProt P07947)
# [38] = target: CDK2 CCNE1 (human) (UniProt P24941+P24864)
# [39] = target: LRRK2 (human) (UniProt Q5S007)
# [40] = target: CSNK1A1 (human) (UniProt P48729)
# [41] = target: PAK7 (human) (UniProt Q9P286)
# [42] = target: ROCK1 (human) (UniProt Q13464)
# Chain of RET (human) (P07949 whole entry, looked up): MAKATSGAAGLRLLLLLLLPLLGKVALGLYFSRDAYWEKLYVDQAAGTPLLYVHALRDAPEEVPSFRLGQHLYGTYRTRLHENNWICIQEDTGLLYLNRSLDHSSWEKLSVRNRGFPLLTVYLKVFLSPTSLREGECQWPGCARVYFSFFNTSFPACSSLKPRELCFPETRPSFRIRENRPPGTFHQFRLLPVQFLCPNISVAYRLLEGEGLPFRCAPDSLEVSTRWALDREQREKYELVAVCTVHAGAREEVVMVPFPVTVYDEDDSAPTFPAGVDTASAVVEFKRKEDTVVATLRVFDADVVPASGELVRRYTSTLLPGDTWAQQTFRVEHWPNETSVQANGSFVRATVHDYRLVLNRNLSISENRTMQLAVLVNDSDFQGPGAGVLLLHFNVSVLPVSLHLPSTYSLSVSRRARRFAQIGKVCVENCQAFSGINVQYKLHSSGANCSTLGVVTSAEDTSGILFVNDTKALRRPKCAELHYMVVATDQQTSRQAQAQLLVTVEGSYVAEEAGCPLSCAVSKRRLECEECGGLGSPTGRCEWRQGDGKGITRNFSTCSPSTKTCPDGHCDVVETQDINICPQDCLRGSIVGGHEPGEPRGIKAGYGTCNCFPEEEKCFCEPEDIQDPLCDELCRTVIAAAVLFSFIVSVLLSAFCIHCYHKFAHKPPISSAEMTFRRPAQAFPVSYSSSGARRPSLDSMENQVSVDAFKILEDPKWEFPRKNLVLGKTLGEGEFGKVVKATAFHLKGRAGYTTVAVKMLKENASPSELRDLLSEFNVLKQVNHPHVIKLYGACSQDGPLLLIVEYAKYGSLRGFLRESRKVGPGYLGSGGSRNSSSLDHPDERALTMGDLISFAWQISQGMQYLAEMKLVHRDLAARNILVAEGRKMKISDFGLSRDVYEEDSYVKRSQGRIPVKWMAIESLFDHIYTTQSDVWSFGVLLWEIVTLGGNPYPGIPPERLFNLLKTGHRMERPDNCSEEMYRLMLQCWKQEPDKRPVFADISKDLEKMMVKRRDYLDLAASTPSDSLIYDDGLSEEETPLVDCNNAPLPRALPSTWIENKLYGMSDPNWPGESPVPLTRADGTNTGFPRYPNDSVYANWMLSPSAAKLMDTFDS
# Chain of TLK2 (human) (Q86UE8 whole entry, looked up): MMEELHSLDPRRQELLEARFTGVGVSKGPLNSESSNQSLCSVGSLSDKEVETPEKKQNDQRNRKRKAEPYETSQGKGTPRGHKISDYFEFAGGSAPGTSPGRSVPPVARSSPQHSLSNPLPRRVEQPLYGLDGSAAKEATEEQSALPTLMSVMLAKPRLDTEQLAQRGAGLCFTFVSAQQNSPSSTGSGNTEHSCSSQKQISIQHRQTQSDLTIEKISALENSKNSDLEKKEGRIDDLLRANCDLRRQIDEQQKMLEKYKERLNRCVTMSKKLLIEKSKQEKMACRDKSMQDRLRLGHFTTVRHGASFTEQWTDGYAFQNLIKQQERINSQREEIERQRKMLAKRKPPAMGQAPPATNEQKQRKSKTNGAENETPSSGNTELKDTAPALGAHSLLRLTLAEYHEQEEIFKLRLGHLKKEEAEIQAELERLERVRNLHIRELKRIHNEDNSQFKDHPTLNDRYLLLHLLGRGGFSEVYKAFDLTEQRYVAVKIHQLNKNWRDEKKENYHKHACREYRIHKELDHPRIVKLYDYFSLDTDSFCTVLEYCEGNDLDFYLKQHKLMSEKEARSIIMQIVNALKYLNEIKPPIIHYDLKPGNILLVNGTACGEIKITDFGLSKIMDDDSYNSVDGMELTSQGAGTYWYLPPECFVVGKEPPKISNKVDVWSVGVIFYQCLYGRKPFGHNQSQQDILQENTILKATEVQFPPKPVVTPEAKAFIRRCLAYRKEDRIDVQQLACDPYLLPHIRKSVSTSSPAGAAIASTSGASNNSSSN
# Chain of SIK2 (human) (Q9H0K1 whole entry, looked up): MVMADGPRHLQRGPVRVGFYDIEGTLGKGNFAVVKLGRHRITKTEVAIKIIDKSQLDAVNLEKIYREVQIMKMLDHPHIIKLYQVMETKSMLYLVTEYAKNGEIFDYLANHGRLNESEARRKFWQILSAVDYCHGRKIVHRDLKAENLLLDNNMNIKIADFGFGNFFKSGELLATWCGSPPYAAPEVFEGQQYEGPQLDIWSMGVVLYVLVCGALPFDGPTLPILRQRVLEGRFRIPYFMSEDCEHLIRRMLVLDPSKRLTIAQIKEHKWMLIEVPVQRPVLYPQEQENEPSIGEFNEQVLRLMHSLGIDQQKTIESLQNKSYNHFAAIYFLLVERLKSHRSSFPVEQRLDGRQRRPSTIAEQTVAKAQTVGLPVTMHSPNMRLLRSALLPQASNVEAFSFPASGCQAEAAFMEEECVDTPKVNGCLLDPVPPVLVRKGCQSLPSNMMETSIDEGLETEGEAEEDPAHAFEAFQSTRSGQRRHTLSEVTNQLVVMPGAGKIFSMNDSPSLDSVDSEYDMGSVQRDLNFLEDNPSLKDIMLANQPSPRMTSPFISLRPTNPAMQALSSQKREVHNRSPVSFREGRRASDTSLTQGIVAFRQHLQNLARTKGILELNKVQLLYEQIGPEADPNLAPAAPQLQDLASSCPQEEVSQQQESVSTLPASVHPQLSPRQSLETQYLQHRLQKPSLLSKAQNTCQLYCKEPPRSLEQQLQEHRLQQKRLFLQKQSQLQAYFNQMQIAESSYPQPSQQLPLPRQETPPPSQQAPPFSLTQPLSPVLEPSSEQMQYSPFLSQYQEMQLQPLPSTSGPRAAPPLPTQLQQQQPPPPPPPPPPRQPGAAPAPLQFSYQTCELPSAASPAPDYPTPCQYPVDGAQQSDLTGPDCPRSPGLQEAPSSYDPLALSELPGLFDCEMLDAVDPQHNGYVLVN
# Chain of CDK6 CCND1 (human) (P24385 whole entry, looked up): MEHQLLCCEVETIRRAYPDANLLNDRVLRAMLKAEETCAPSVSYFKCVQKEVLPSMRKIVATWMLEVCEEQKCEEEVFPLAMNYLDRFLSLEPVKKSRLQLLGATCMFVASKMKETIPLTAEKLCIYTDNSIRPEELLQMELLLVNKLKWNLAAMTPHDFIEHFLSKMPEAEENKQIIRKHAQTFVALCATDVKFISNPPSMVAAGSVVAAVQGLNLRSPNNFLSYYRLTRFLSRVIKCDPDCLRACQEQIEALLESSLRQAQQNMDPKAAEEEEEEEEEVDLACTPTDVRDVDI
# Chain of CDK6 CCND1 (human) (Q00534 whole entry, looked up): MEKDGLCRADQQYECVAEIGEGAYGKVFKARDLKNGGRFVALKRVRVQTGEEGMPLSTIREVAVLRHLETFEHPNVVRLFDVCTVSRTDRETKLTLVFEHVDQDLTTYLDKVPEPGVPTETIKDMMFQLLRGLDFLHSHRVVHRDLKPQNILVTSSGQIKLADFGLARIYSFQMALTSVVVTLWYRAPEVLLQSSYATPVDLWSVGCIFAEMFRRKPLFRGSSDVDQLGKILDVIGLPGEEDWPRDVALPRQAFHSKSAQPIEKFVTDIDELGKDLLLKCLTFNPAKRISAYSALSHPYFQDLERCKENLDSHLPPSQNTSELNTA
# Chain of MET (human) (P08581 whole entry, looked up): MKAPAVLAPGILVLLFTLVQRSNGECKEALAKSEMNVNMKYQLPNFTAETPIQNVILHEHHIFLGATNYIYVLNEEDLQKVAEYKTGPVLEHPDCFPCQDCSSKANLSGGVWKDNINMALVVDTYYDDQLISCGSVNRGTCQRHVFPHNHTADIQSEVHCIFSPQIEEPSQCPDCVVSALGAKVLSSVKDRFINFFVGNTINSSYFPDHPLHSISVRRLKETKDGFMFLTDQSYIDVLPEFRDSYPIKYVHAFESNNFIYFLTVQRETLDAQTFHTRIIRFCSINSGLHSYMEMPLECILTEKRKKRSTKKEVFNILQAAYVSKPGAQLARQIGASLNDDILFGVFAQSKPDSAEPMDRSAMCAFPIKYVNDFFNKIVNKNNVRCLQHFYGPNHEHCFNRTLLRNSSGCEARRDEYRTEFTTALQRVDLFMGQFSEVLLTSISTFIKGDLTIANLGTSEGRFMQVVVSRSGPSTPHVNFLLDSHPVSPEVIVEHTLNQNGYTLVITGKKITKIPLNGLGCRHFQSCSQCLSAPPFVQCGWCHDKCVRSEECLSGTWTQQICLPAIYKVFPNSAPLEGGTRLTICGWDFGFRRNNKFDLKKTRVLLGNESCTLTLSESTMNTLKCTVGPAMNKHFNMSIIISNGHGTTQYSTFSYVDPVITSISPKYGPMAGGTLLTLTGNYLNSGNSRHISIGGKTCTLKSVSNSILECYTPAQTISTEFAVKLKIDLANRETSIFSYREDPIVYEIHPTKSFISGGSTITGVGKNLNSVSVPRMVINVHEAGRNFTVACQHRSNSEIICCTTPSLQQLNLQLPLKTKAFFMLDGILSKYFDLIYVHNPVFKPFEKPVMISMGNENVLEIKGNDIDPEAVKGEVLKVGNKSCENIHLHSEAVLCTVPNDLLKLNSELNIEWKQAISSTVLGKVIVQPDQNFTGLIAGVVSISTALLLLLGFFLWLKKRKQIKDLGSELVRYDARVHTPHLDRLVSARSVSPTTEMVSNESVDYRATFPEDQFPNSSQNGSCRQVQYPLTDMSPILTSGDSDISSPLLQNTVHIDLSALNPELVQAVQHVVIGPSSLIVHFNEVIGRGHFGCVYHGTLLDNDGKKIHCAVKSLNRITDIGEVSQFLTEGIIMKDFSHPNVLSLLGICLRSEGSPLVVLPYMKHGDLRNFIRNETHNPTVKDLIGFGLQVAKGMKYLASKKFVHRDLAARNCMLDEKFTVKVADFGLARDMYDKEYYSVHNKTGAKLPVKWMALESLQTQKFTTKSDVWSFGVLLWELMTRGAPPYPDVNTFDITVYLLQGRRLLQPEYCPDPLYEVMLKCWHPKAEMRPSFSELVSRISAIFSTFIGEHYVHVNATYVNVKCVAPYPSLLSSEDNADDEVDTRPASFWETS
smiles,measurement,setting,value
O=C(O)c1ccc2c3c1cccc3c(=O)n1c3ccccc3nc21,residual activity,[1],47%
same,residual activity,[2],94.3%
same,residual activity,[3],97.5%
same,residual activity,[4],104%
same,residual activity,[5],57.3%
same,residual activity,[6],96%
same,residual activity,[7],90.7%
same,residual activity,[8],90.6%
same,residual activity,[9],91.5%
same,residual activity,[10],96.8%
same,residual activity,[11],102%
same,residual activity,[12],91%
same,residual activity,[13],105%
same,residual activity,[14],78.8%
same,residual activity,[15],96.5%
same,residual activity,[16],96.5%
same,residual activity,[17],96.7%
same,residual activity,[18],96.1%
same,residual activity,[19],108%
same,residual activity,[20],88.6%
same,residual activity,[21],95.1%
same,residual activity,[22],83.5%
same,residual activity,[23],92.8%
same,residual activity,[24],20.2%
same,residual activity,[25],103%
same,residual activity,[26],100%
same,residual activity,[27],133%
same,residual activity,[28],101%
same,residual activity,[29],94.3%
same,residual activity,[30],91.2%
same,residual activity,[31],79.8%
same,residual activity,[32],82.6%
same,residual activity,[33],93.3%
same,residual activity,[34],101%
same,residual activity,[35],127%
same,residual activity,[36],83%
same,residual activity,[37],96.6%
same,residual activity,[38],90.9%
same,residual activity,[39],70.1%
same,residual activity,[40],97.6%
same,residual activity,[41],98.7%
same,residual activity,[42],104%
